Measured values as given in paper PMC9416004, “A Versatile Class of 1,4,4-Trisubstituted Piperidines Block Coronavirus Replication In Vitro” (Pharmaceuticals, 2022).
Read-outs that look alike come from different tables or passages of the source.

Experiments:
[1] = test system: HCoV-229E; test: Cytopathic effect (CPE) reduction assay with HCoV-229E in HEL cells; assay type: cell-based, human coronavirus 229E; conditions: for EC50: Human coronavirus 229E, 120 h, HCoV-229E-infected HEL cells, five days at 35 °C; for Selectivity Index Microscopy: ratio of MCC to EC50-microscopy; for Selectivity Index Microscopy / Selectivity Index MTS: only values of 10 or higher shown; for Selectivity Index MTS: ratio of CC50 to EC50-MTS
[2] = test system: human embryonic lung (HEL) fibroblast cells; conditions: mock-infected HEL cells; microscopically visible alterations in cell morphology
[3] = in vitro; conditions: human
[4] = protection against virus-induced CPE by MTS cell viability assay, read-out: Antiviral EC50 MTS
[5] = protection against virus-induced CPE by microscopic scoring, read-out: Antiviral EC50 Microscopy

SMILES: COC(=O)C[C@H](NC(=O)OC(C)(C)C)C(=O)N(Cc1ccc(C(F)(F)F)cc1)C1(C(=O)NCc2ccccc2)CCN(Cc2ccccc2)CC1 [Compound 24]
- EC50 [1, 4]: 4.2 ± 1 µM
- EC50 [1, 5]: 3.1 µM
- Cytotoxicity MCC (minimal cytotoxic concentration) [2]: 25 µM
- CC50 [3]: 11 ± 1 µM

SMILES: COC(=O)C[C@H](NC(=O)OC(C)(C)C)C(=O)N(Cc1cccc(F)c1)C1(C(=O)NCc2ccccc2)CCN(Cc2ccccc2)CC1 [Compound 27]
- EC50 [1, 4]: 14 ± 1 µM
- EC50 [1, 5]: 10 ± 3 µM
- Selectivity Index Microscopy [1]: 10
- Cytotoxicity MCC (minimal cytotoxic concentration) [2]: 100 µM
- CC50 [3]: 46 ± 4 µM

SMILES: COC(=O)C[C@H](NC(=O)OC(C)(C)C)C(=O)N(Cc1ccc(F)cc1)C(C)(C)C(=O)NCc1ccccc1 [Compound 3]
- EC50 [1, 4]: > 100 µM
- EC50 [1, 5]: > 100 µM
- Cytotoxicity MCC (minimal cytotoxic concentration) [2]: >100 µM
- CC50 [3]: > 100 µM

SMILES: COC(=O)C[C@H](NC(=O)OC(C)(C)C)C(=O)N(Cc1ccc(F)cc1)C1(C(=O)NCc2ccccc2)CCN(C)CC1 [Compound 5]
- EC50 [1, 4]: 22 ± 7 µM
- EC50 [1, 5]: 22 ± 9 µM
- Cytotoxicity MCC (minimal cytotoxic concentration) [2]: >100 µM
- CC50 [3]: 92 ± 4 µM

SMILES: CCC(C)N(C(=O)[C@H](CC(=O)OC)NC(=O)OC(C)(C)C)C1(C(=O)NCc2ccccc2)CCN(Cc2ccccc2)CC1 (some centres unmarked) [Compound 20]
- EC50 [1, 4]: 13 ± 1 µM
- EC50 [1, 5]: 14 ± 1 µM
- Cytotoxicity MCC (minimal cytotoxic concentration) [2]: 100 µM
- CC50 [3]: 31 ± 3 µM

SMILES: COC(=O)C[C@H](NC(=O)OC(C)(C)C)C(=O)N(Cc1ccc(F)cc1)C1(C(=O)NCc2ccccc2)CCN(CCc2ccccc2)CC1 [Compound 11]
- EC50 [1, 4]: 4.4 ± 0.8 µM
- EC50 [1, 5]: 3.2 ± 0.1 µM
- Selectivity Index Microscopy [1]: 31
- Cytotoxicity MCC (minimal cytotoxic concentration) [2]: 100 µM
- CC50 [3]: 38 ± 2 µM

SMILES: COC(=O)C[C@H](NC(=O)OC(C)(C)C)C(=O)N(Cc1ccc(F)c(F)c1)C1(C(=O)NCc2ccccc2)CCN(Cc2ccccc2)CC1 [Compound 28]
- EC50 [1, 4]: 3.7 ± 1 µM
- EC50 [1, 5]: 6 ± 2.6 µM
- Cytotoxicity MCC (minimal cytotoxic concentration) [2]: 44 µM
- CC50 [3]: 23 ± 11 µM

SMILES: COC(=O)C[C@H](NC(=O)OC(C)(C)C)C(=O)N(C)C1(C(=O)NCc2ccccc2)CCN(Cc2ccccc2)CC1 [Compound 19]
- EC50 [1, 4]: > 100 µM
- EC50 [1, 5]: 14 ± 1 µM
- Cytotoxicity MCC (minimal cytotoxic concentration) [2]: 100 µM
- CC50 [3]: 18 ± 2 µM

SMILES: COC(=O)CCC(=O)N(Cc1ccc(F)cc1)C1(C(=O)NCc2ccccc2)CCN(Cc2ccccc2)CC1 [Compound 30]
- EC50 [1, 4]: 13 ± 2 µM
- EC50 [1, 5]: 13 µM
- Cytotoxicity MCC (minimal cytotoxic concentration) [2]: 100 µM
- CC50 [3]: 64 ± 3 µM

SMILES: COC(=O)C[C@H](NC(=O)OCC1c2ccccc2-c2ccccc21)C(=O)N(Cc1ccccc1)C1(C(=O)NCc2ccccc2)CCN(Cc2ccccc2)CC1 [Compound 35]
- EC50 [1, 4]: 26 ± 9 µM
- EC50 [1, 5]: 36 ± 14 µM
- Cytotoxicity MCC (minimal cytotoxic concentration) [2]: >100 µM
- CC50 [3]: > 100 µM

SMILES: COC(=O)C[C@H](NC(=O)OC(C)(C)C)C(=O)N(Cc1ccccc1)C1(C(=O)NC(C)(C)C)CCN(Cc2ccccc2)CC1 [Compound 15, Methyl(S)-4-(benzyl(1-benzyl-4-tert-butylcarbamoylpiperidin-4-yl)amino)-3-tert-butoxycarbonylamino-4-oxobutanoate]
- EC50 [1, 4]: 25 µM
- EC50 [1, 5]: 25 µM
- Cytotoxicity MCC (minimal cytotoxic concentration) [2]: >100 µM
- CC50 [3]: 78 ± 7 µM

SMILES: COC(=O)C[C@H](NC(=O)OC(C)(C)C)C(=O)N(Cc1ccc(F)cc1)C1(C(=O)NCS(=O)(=O)c2ccc(C)cc2)CCN(Cc2ccccc2)CC1 [Compound 14]
- EC50 [1, 4]: 30 ± 6 µM
- EC50 [1, 5]: 57 ± 18 µM
- Cytotoxicity MCC (minimal cytotoxic concentration) [2]: 100 µM
- CC50 [3]: 78 ± 11 µM

SMILES: COC(=O)C[C@H](NC(=O)OCc1ccccc1)C(=O)N(Cc1ccccc1)C1(C(=O)NCc2ccccc2)CCN(CCc2ccccc2)CC1 [Compound 53, Methyl(S)-4-(benzyl(4-benzylcarbamoyl-1-phenethylpiperidin-4-yl)amino)-3-benzyloxycarbonylamino-4-oxobutanoate]
- EC50 [1, 4]: 5.8 ± 1.9 µM
- EC50 [1, 5]: 6.1 ± 2 µM
- Cytotoxicity MCC (minimal cytotoxic concentration) [2]: 40 µM
- CC50 [3]: 24 ± 2 µM

SMILES: COC(=O)C[C@H](NC(=O)OC(C)(C)C)C(=O)N(Cc1ccc([N+](=O)[O-])cc1)C1(C(=O)NCc2ccccc2)CCN(Cc2ccccc2)CC1 [Compound 23]
- EC50 [1, 4]: 4 ± 0.6 µM
- EC50 [1, 5]: 3.1 µM
- Selectivity Index MTS [1]: 12
- Selectivity Index Microscopy [1]: 24
- Cytotoxicity MCC (minimal cytotoxic concentration) [2]: 75 µM
- CC50 [3]: 49 ± 6 µM

SMILES: C[C@H](NC(=O)OC(C)(C)C)C(=O)N(Cc1ccc(F)cc1)C1(C(=O)NCc2ccccc2)CCN(Cc2ccccc2)CC1 [Compound 38]
- EC50 [1, 4]: 15 ± 3 µM
- EC50 [1, 5]: 12 ± 1 µM
- Cytotoxicity MCC (minimal cytotoxic concentration) [2]: 100 µM
- CC50 [3]: 48 ± 2 µM

SMILES: COC(=O)C[C@H](NC(=O)OC(C)(C)C)C(=O)N(Cc1ccc(F)cc1)C1(C(=O)NCc2ccccc2)CCN(Cc2ccccc2)CC1 [Compound 2]
- EC50 [1, 4]: 7.4 ± 2.5 µM
- EC50 [1, 5]: 7.8 ± 2.7 µM
- Selectivity Index MTS [1]: 6
- Selectivity Index Microscopy [1]: 13
- Cytotoxicity MCC (minimal cytotoxic concentration) [2]: 100 µM
- CC50 [3]: 44 ± 8 µM

SMILES: CC(C)(C)OC(=O)N[C@@H](CC(=O)O)C(=O)N(Cc1ccccc1)C1(C(=O)NCc2ccccc2)CCN(Cc2ccccc2)CC1 [Compound 44]
- EC50 [1, 4]: > 100 µM
- EC50 [1, 5]: > 100 µM
- Cytotoxicity MCC (minimal cytotoxic concentration) [2]: >100 µM
- CC50 [3]: > 100 µM

SMILES: COC(=O)C[C@H](N)C(=O)N(Cc1ccc(F)cc1)C1(C(=O)NCc2ccccc2)CCN(Cc2ccccc2)CC1 [Compound 31]
- EC50 [1, 4]: 2.8 ± 0.5 µM
- EC50 [1, 5]: 3.3 ± 0.2 µM
- Cytotoxicity MCC (minimal cytotoxic concentration) [2]: 11 µM
- CC50 [3]: 4.9 ± 1.5 µM

SMILES: CCC(C)N(C(=O)[C@H](CC(=O)OC)NC(=O)OCc1ccccc1)C1(C(=O)NCc2ccccc2)CCN(Cc2ccccc2)CC1 (some centres unmarked) [Compound 36]
- EC50 [1, 4]: 6.2 ± 0.8 µM
- EC50 [1, 5]: 9.2 ± 0.5 µM
- Cytotoxicity MCC (minimal cytotoxic concentration) [2]: 40 µM
- CC50 [3]: 27 ± 1 µM

SMILES: COC(=O)C[C@H](N)C(=O)N(Cc1ccccc1)C1(C(=O)NCc2ccccc2)CCN(Cc2ccccc2)CC1 [Compound 32]
- EC50 [1, 4]: 62 ± 7 µM
- EC50 [1, 5]: 55 ± 3 µM
- Cytotoxicity MCC (minimal cytotoxic concentration) [2]: >100 µM
- CC50 [3]: > 100 µM

SMILES: COC(=O)C[C@H](NC(=O)OC(C)(C)C)C(=O)N(Cc1ccc(F)cc1)C1(C(=O)NCc2ccccc2)CCN(Cc2cccc(F)c2)CC1 [Compound 9]
- EC50 [1, 4]: > 100 µM
- EC50 [1, 5]: > 100 µM
- Cytotoxicity MCC (minimal cytotoxic concentration) [2]: >100 µM
- CC50 [3]: > 100 µM

SMILES: COC(=O)C[C@H](NC(=O)OCc1ccccc1)C(=O)N(Cc1ccccc1)C1(C(=O)NCc2ccccc2)CCN(CCc2ccc(C)cc2)CC1 [Compound 54, Methyl(S)-4-(benzyl(4-benzylcarbamoyl-1-(4-methylphenethyl)piperidin-4-yl)amino)-3-benzyloxycarbonylamino-4-oxobutanoate]
- EC50 [1, 4]: 8.4 ± 0.5 µM
- EC50 [1, 5]: 10 µM
- Cytotoxicity MCC (minimal cytotoxic concentration) [2]: 40 µM
- CC50 [3]: 24 ± 2 µM

SMILES: CC(C)(C)OC(=O)N[C@@H](Cc1ccc(O)cc1)C(=O)N(Cc1ccccc1)C1(C(=O)NCc2ccccc2)CCN(Cc2ccccc2)CC1 [Compound 48]
- EC50 [1, 4]: 9.3 µM
- EC50 [1, 5]: 11 ± 1 µM
- Selectivity Index MTS [1]: >11
- Cytotoxicity MCC (minimal cytotoxic concentration) [2]: >100 µM
- CC50 [3]: > 100 µM

SMILES: COC(=O)C[C@H](NC(=O)OCc1ccccc1)C(=O)N(CCNc1ccccc1)C1(C(=O)NCc2ccccc2)CCN(CCc2ccccc2)CC1 [Compound 58, Methyl(S)-4-((4-benzylcarbamoyl-1-phenethylpiperidin-4-yl)(2-(phenylamino)ethyl)amino)-3-benzyloxycarbonylamino-4-oxobutanoate]
- EC50 [1, 4]: 5.4 ± 1.4 µM
- EC50 [1, 5]: 7.9 ± 1.9 µM
- Cytotoxicity MCC (minimal cytotoxic concentration) [2]: 24 µM
- CC50 [3]: 20 ± 4 µM

SMILES: COC(=O)C[C@H](NC(=O)OCc1ccccc1)C(=O)N(Cc1ccccc1)C1(C(=O)NCc2ccccc2)CCN(CCc2ccc([N+](=O)[O-])cc2)CC1 [Compound 55, Methyl(S)-4-(benzyl(4-benzylcarbamoyl-1-(4-nitrophenethyl)piperidin-4-yl)amino)-3-benzyloxycarbonylamino-4-oxobutanoate]
- EC50 [1, 4]: 7.7 ± 0.9 µM
- EC50 [1, 5]: 10 µM
- Selectivity Index MTS [1]: >13
- Cytotoxicity MCC (minimal cytotoxic concentration) [2]: 60 µM
- CC50 [3]: > 100 µM

SMILES: CC(C)(C)OC(=O)NC(Cc1ccccc1)C(=O)N(Cc1ccccc1)C1(C(=O)NCc2ccccc2)CCN(Cc2ccc(Cl)cc2)CC1 (centres unmarked) [Compound 61, Tert-butyl(1-(benzyl(4-benzylcarbamoyl-1-(4-chlorobenzyl)piperidin-4-yl)amino)-1-oxo-3-phenylpropan-2-yl)carbamate]
- EC50 [1, 4]: 30 ± 7 µM
- EC50 [1, 5]: 36 ± 9 µM
- Cytotoxicity MCC (minimal cytotoxic concentration) [2]: >100 µM
- CC50 [3]: > 100 µM

SMILES: COC(=O)C[C@H](NC(=O)OC(C)(C)C)C(=O)N(Cc1ccc(F)cc1)C1(C(=O)NCc2ccccc2)CCN(c2ccccc2)CC1 [Compound 7]
- EC50 [1, 4]: > 100 µM
- EC50 [1, 5]: 43 ± 3 µM
- Cytotoxicity MCC (minimal cytotoxic concentration) [2]: >100 µM
- CC50 [3]: > 100 µM

SMILES: COC(=O)C[C@H](NC(=O)OCc1ccccc1)C(=O)N(C1CC1)C1(C(=O)NCc2ccccc2)CCN(Cc2ccccc2)CC1 [Compound 37]
- EC50 [1, 4]: > 100 µM
- EC50 [1, 5]: 3 ± 0.1 µM
- Cytotoxicity MCC (minimal cytotoxic concentration) [2]: 11 µM
- CC50 [3]: 3.6 ± 0.1 µM

SMILES: COC(=O)C[C@H](NC(=O)OCc1ccccc1)C(=O)N(Cc1ccc(C)cc1)C1(C(=O)NCc2ccccc2)CCN(CCc2ccccc2)CC1 [Compound 59, Methyl(S)-4-((4-benzylcarbamoyl-1-phenethylpiperidin-4-yl)(4-methylbenzyl)amino)-3-benzyloxycarbonylamino-4-oxobutanoate]
- EC50 [1, 4]: 5.1 ± 1 µM
- EC50 [1, 5]: 8.8 ± 0.7 µM
- Cytotoxicity MCC (minimal cytotoxic concentration) [2]: 16 µM
- CC50 [3]: 15 ± 5 µM

SMILES: COC(=O)C[C@H](NC(=O)OC(C)(C)C)C(=O)N(Cc1ccc(F)cc1)C1(C(=O)NC2CCCCC2)CCN(Cc2ccccc2)CC1 [Compound 13]
- EC50 [1, 4]: > 100 µM
- EC50 [1, 5]: > 100 µM
- Cytotoxicity MCC (minimal cytotoxic concentration) [2]: >100 µM
- CC50 [3]: > 100 µM
